From publication PMC2846521 (Journal of chemical information and modeling, 2009)

Legend:
[1] = target: T1, Gβ1γ2 (Homo sapiens, UniProt P62873); assay: Competition ELISA with the high-affinity SIGK peptide; settings: read-out: Median Inhibitory Concentration IC50 (binding inhibitors of SIGK); competition with SIGK peptide in ELISA
[2] = system: phosphoinositide 3-kinase γ (PI3K); settings: cited from earlier work
[3] = system: phospholipase C; settings: cited from earlier work
[4] = target: T1, Gβ1γ2; settings: surface plasmon resonance; cited from earlier work
[5] = system: PI3K; settings: cited from earlier work
[6] = system: neutrophil; settings: cited from earlier work
[7] = mice; cited from earlier work

Row | SMILES | IC50 [1] | other results
1 | Nc1ccc(S(=O)(=O)c2ccc(NCN3C(=O)NC(=O)C(=O)C3=O)cc2)cc1 [compound 34238] | 42 µM | 
2 | NCCNC(=S)S [compound 83224] | 24.9 µM | 
3 | O=C(O)[C@@H]1[C@H](C(=O)O)[C@]2(Cl)C(Cl)=C(Cl)[C@@]1(Cl)C2(Cl)Cl [compound 22225] | 11.4 µM | 
4 | O=C(O)c1c(Br)c(Br)c(Br)c(Br)c1C1c2ccc(O)cc2Oc2cc(O)ccc21 [compound 119889] | 4.3 µM | 
5 | C[C@H]1CCCC2(CC[N+](C)(CCC[N+](C)(C)C)CC2)C1 (some centres unmarked) [compound 95676] | 182 µM | 
6 | O=C(O)C1CCCCC1c1c2ccc(=O)c(O)c-2oc2c(O)c(O)ccc12 (centres unmarked) [compound 119910] | 0.2 µM | Gβγ-dependent activation of phosphoinositide 3-kinase γ (PI3K) [2]: inhibit; Gβγ-dependent activation of phospholipase C [3]: inhibit
7 | O=C1C(Cl)=C(Nc2ccc(S(=O)(=O)Nc3ccccn3)cc2)C(=O)c2ccccc21 [compound 45382] | 35.4 µM | 
8 | N=C(N)SCCN1CCCCC1 [compound 121771] | 198 µM | 
9 | Cc1ccc(S(=O)(=O)OC2C(C3COC(C)(C)O3)OC3OC(C)(C)OC32)cc1 (centres unmarked) [compound 14163] | 5.9 µM | 
10 | CC1C2C=CC1C(c1c3ccc(=O)c(O)c-3oc3c(O)c(O)ccc13)C2C(=O)O (centres unmarked) [compound 119913] | 0.7 µM | 
11 | C[N+]1(CCN[N+]2(C)CCCCC2)CCc2ccccc2C1 (centres unmarked) [compound 17770] | 59.1 µM | 
12 | O=C(O)/C=C/c1c2ccc(=O)c(O)c-2oc2c(O)c(O)ccc12 [compound 119911] | 0.2 µM | 
13 | Nc1c(S(=O)(=O)O)cc(Nc2cccc(S(N)(=O)=O)c2)c2c1C(=O)c1ccccc1C2=O [compound 117079] | 56 µM | 
14 | Nc1ccc(-c2ccc(Nc3cc(S(=O)(=O)O)c(N)c4c3C(=O)c3ccccc3C4=O)cc2)c(S(=O)(=O)O)c1 [compound 125910] | 18 µM | 
15 | CC[N+](C)(CC)CCN1C(=O)c2ccccc2S1(=O)=O [compound 45126] | 69.7 µM | 
16 | C[C@]12CC[C@H]3[C@@H](CCC4=CC(=O)CC[C@@]43C)[C@@H]1CC[C@@H]2C(=O)COS(=O)(=O)c1ccc(Br)cc1 [compound 88915] | 47.7 µM | 
17 | CN1C[C@H](c2ccccc2)C(O)([C@]2(c3ccccc3)CN(C)C[C@@H](c3ccccc3)C2=O)[C@H](c2ccccc2)C1 (some centres unmarked) [compound 39207] | 10.7 µM | 

Row | SMILES | IC50 [1] | other results
18 | CCC(=O)OCN1C(=O)C=CC1=O [compound 19630] | 53.6 µM | 
19 | CN(CCc1ccccn1)c1ccc2c(c1)C(=O)c1ccccc1-2 [compound 24048] | 292 µM | 
20 | O=C1c2ccccc2C(=O)c2c1ccc(C(=O)O)c2-c1ccc2ccccc2c1 [compound 9608] | 16.5 µM | 
21 | COc1ccc(CC[N@+]2(C)COc3cc4oc(=O)cc(C)c4cc3C2)cc1OC [compound 59275] | 197 µM | 
22 | N=C1C(O)C2(I)c3ccccc3N3C(=N)C(O)C4c5ccccc5N1C4C32 (centres unmarked) [compound 118176] | 8.1 µM | 
23 | C[N+]1(CCC[N+]2(C)C[C@H]3[C@H](C2)[C@H]2C=C[C@@H]3CC2)CCOCC1 (some centres unmarked) [compound 90831] | 92.9 µM | 
24 | CN(C)CS/C(N)=N/[C@H](O)C(Cl)(Cl)Cl [compound 14555] | 26 µM | 
25 | Nc1cc(S(N)(=O)=O)ccc1SSc1ccc(S(N)(=O)=O)cc1N [compound 83217] | 56.9 µM | 
26 | Cc1cc(O)c(-c2cc(O)c(C)cc2O)cc1O [compound 2805] | 7.1 µM | 
27 | C[N+]1(CC[N+]2(C)CCCC2c2cccnc2)CCCC1c1cccnc1 (centres unmarked) [compound 3284] | 262 µM | 
28 | CN(C)C1C(=O)C(C(N)=O)=C(O)C2(O)C(=O)C3=C(O)c4c(O)cccc4C(C)(O)C3CC12 (centres unmarked) [compound 69343] | 16.8 µM | 
29 | O=C1c2ccccc2C(=O)c2c(Nc3cc4c5c(ccc6c7ccc8c9c(cc(Nc%10cccc%11c%10C(=O)c%10ccccc%10C%11=O)c(c3c56)c97)-c3ccccc3C8=O)C(=O)c3ccccc3-4)cccc21 [compound 23128] | 27 µM | 
30 | O=C1OC2(c3ccccc31)c1ccc(O)c(O)c1Oc1c2ccc(O)c1O [gallein] |  | Kd [4]: ~0.4 µM; PI3K activation [5]: inhibit; chemoattractant-dependent neutrophil migration [6]: inhibit; carrageenan-induced inflammation [7]: lessen
31 | O=C1c2cc([N+](=O)[O-])ccc2-c2ccc3c4ccc5c6c(ccc(c7ccc1c2c73)c64)C(=O)c1cc([N+](=O)[O-])ccc1-5 [compound 51535] | 2.4 µM | 
32 | O=C(c1ccc([N+](=O)[O-])cc1)C(Br)C(Br)c1ccnc2ccccc12 (centres unmarked) [compound 150289] | 42.5 µM | 
33 | O=C1c2ccccc2C(=O)c2c(NC3CCCCC3)ccc(Nc3ccc(S(=O)(=O)O)cc3)c21 [compound 128437] | 24 µM | 
